Reference: patent publication US9365604B2, “Oligomer-nucleoside phosphate conjugates” (NEKTAR THERAPEUTICS, priority 2007, dated 2016)

What was measured:
PANC-1 = settings: Zajchowski et al. 2005; cited from earlier work
[1] = Bi-directional permeability in Caco-2 cells; settings: human
Text: (§3) Bi-Directional Permeability of PEG-Floxuridine Conjugates in Caco-2 and MDCK Cells

in vitro [2] = settings: dog, MDCK
Text: as §3

[3] = Bi-directional permeability in MDCK cells; settings: dog
Text: as §3

in vitro [4] = settings: human, Caco-2
Text: as §3

MCF7 = assay: Sulforhodamine B (SRB) growth inhibition assay; assay type: cell-based, Human
Method: (§1) In Vitro Screening of PEG-Gemcitabine Monophosphate in Selected Human Cancer Cell Lines
(§2) The aim was to determine the GI50 values for PEG-floxuridine conjugates against a panel of cell lines, and based on previous data from Xenograft studies. […] The test articles were solubilized in dimethylsulfoxide and were tested at four different molar (M) concentrations; 10^−4, 10^−5, 10^−6, M. GI50 (the concentration needed to reduce the growth of treated cells to half that of untreated control cells) was calculated for each condition ([(Ti−Tz)/(C-Tz)]×100=50, where Ti, Tz, and C refer to absorbance values obtained from each tested concentration, time zero, and control treatment, respectively).
as §2, with “The objective” for “The aim”, “the IC50” for “the GI50”, “for PEG-gemcitabine” for “for PEG-floxuridine”, “in dimethyl sulfoxide” for “in dimethylsulfoxide”, “10^−6, 10^−7” for “10^−6,”, “condition ([(Ti−Tz)/(C−Tz)]×100=50,” for “condition ([(Ti−Tz)/(C-Tz)]×100=50,”

Hop62 = assay: Sulforhodamine B (SRB) growth inhibition assay; assay type: cell-based, Human
Method: as §1, §2
as §2, with “The objective” for “The aim”, “the IC50” for “the GI50”, “for PEG-gemcitabine” for “for PEG-floxuridine”, “in dimethyl sulfoxide” for “in dimethylsulfoxide”, “10^−6, 10^−7” for “10^−6,”, “condition ([(Ti−Tz)/(C−Tz)]×100=50,” for “condition ([(Ti−Tz)/(C-Tz)]×100=50,”

HT29 = assay: Sulforhodamine B (SRB) growth inhibition assay; assay type: cell-based, Human
Method: as §1, §2
as §2, with “The objective” for “The aim”, “the IC50” for “the GI50”, “for PEG-gemcitabine” for “for PEG-floxuridine”, “in dimethyl sulfoxide” for “in dimethylsulfoxide”, “10^−6, 10^−7” for “10^−6,”, “condition ([(Ti−Tz)/(C−Tz)]×100=50,” for “condition ([(Ti−Tz)/(C-Tz)]×100=50,”

A2780 = assay: Sulforhodamine B (SRB) growth inhibition assay; assay type: cell-based, Human
Method: as §1, §2
as §2, with “The objective” for “The aim”, “the IC50” for “the GI50”, “for PEG-gemcitabine” for “for PEG-floxuridine”, “in dimethyl sulfoxide” for “in dimethylsulfoxide”, “10^−6, 10^−7” for “10^−6,”, “condition ([(Ti−Tz)/(C−Tz)]×100=50,” for “condition ([(Ti−Tz)/(C-Tz)]×100=50,”

DU145 = assay: Sulforhodamine B (SRB) growth inhibition assay; assay type: cell-based, Human
Method: as §2
as §2, with “The objective” for “The aim”, “the IC50” for “the GI50”, “for PEG-gemcitabine” for “for PEG-floxuridine”, “in dimethyl sulfoxide” for “in dimethylsulfoxide”, “10^−6, 10^−7” for “10^−6,”, “condition ([(Ti−Tz)/(C−Tz)]×100=50,” for “condition ([(Ti−Tz)/(C-Tz)]×100=50,”

[5] = GI50 of conjugate vs floxuridine

Compound: Nc1ccn([C@@H]2S[C@H](CO)[C@@H](O)[C@@H]2F)c(=O)n1 [4′-thio-FAC]
- resistance of PANC-1 in vitro (shown previously) (PANC-1): resistant

Compound: CCCCCOC(=O)Nc1nc(=O)n([C@@H]2O[C@H](C)[C@@H](O)[C@H]2O)cc1F [Capecitabine]
- Significant efflux (MDCK cells): No
- permeability through MDCK monolayers (in words) (MDCK cells): relatively poor permeability
- Papp B-A/Papp A-B (MDCK cells; dog): 0.9
- recovery ([1]; Caco-2, percent recovery A -> B): 110%
- recovery ([1]; Caco-2, percent recovery B -> A): 99%
- Papp A→B (in vitro [2]): 0.16 ×10⁻⁶ cm/s
- Papp B→A (in vitro [2]): 0.14 ×10⁻⁶ cm/s
- efflux ratio (in vitro [2]): 0.9
- recovery ([3]; percent recovery A -> B): 104%
- recovery ([3]; percent recovery B -> A): 99%
- Absorption potential (Caco-2 cells): High
- Significant efflux (Caco-2 cells): Yes
- permeability across Caco-2 monolayers (in words) (Caco-2 cells): high permeability
- Papp B-A/Papp A-B (Caco-2 cells; human): 3.9
- Papp A→B (in vitro [4]): 2.22 ×10⁻⁶ cm/s
- Papp B→A (in vitro [4]): 8.71 ×10⁻⁶ cm/s
- efflux ratio (in vitro [4]): 3.9

Compound: COCCOCCOCCOP(=O)(OCCOCCOCCOC)OC[C@H]1O[C@@H](n2cc(F)c(=O)[nH]c2=O)C[C@@H]1O [Floxuridine Di (mPEG3), 5′-floxuridine di-methoxy tri(ethylene glycol) phosphate]
- ratio vs flox (GI50) MCF7 (MCF7; [5]): 667
- GI50 (MCF7; SRB assay, cells exposed for 24 h, read-out: GI50 values (μM) MCF7): > 100 µM
- ratio vs flox (GI50) Hop62 (Hop62; [5]): 417
- GI50 (Hop62; SRB assay, cells exposed for 24 h, read-out: GI50 values (μM) Hop62): > 100 µM
- ratio vs flox (GI50) HT29 (HT29; [5]): 4
- GI50 (HT29; SRB assay, cells exposed for 24 h, read-out: GI50 values (μM) HT29): > 100 µM
- ratio vs flox (GI50) A2780 (A2780; [5]): 1538
- GI50 (A2780; SRB assay, cells exposed for 24 h, read-out: GI50 values (μM) A2780): > 100 µM
- ratio vs flox (GI50) DU145 (DU145; [5]): 4
- GI50 (DU145; SRB assay, cells exposed for 24 h, read-out: GI50 values (μM) DU145): > 100 µM
